Assays:
Scn [1] = target: T1, Scn (Homo sapiens, UniProt P80188); assay: Fe-ENT/c-di-GMP competition mixing experiment (ultrafilter retentates); assay type: binding; conditions: Scn premixed with 25-fold molar excess c-di-GMP, then equimolar Fe-ENT, washed in ultrafilter
T1 construct: made in house
Description: Li and coworkers reported that c-di-GMP could compete with bacterial ferric siderophores for Scn binding, alleviating Scn blockade of bacterial iron acquisition during infection ([Li et al., 2015]). This conclusion was based on a computational inverse docking screen, isothermal titration calorimetry (ITC) binding assays, and bacterial growth assays. However, c-di-GMP is not particularly complementary in shape to the Scn calyx, and lacks elements crucial for calyx binding, though its net negative charge does complement the overall positive charge of the calyx. Also, the reported micromolar KD by ITC for the Scn/c-di-GMP interaction was orders-of-magnitude weaker than the sub-nanomolar KDs of Scn for ferric complexes of bacterial CAM-type siderophores previously determined by FQ ([Abergel et al., 2006a], [Abergel et al., 2006b], [Goetz et al., 2002], [Hoette et al., 2008], [Miethke and Skerra, 2010]). [We noted that Li and coworkers also reported a discrepant micromolar KD for the Scn/Fe-ENT interaction by ITC.] However, this conundrum was easily resolved by a simple mixing experiment not previously performed (Fig. 7C). Colorless apo-Scn protein was premixed with a 25-fold molar excess of colorless c-di-GMP, at a concentration well above the reported micromolar KD, and allowed to equilibrate. Fe-ENT, which is colored a deep red, was then added at an equimolar ratio to Scn. […]

Scn [2] = target: Scn; set-up: method as in Li et al., 2015; conditions: ref Li et al., 2015; cited from earlier work

T1 sequence (P80188 21-198): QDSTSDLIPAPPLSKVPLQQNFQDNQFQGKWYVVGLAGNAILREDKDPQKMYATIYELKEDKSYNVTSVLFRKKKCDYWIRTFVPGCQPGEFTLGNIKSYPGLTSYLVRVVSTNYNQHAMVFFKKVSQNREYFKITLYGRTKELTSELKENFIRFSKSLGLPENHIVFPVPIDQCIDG

## Nc1nc2c(ncn2[C@@H]2O[C@@H]3COP(=O)(O)O[C@H]4[C@@H](O)[C@H](n5cnc6c(=O)[nH]c(N)nc65)O[C@@H]4COP(=O)(O)O[C@H]3[C@H]2O)c(=O)[nH]1 [c-di-GMP, cyclic diguanylate monophosphate]
Scn [1]
  competition with Fe-ENT for Scn binding: too weak to impede binding of ferric siderophores
Scn [2]
  KD by ITC: micromolar

From article PMC7337064, “Parsing the functional specificity of Siderocalin/Lipocalin 2/NGAL for siderophores and related small-molecule ligands” (Journal of Structural Biology: X, 2019)
